In patent US5236901A, “Treatment for irritable bowel syndrome” (Research Corporation Technologies, Inc., priority 1991, dated 1993):
No end group written: not given here.

Key:
plasma ACTH = assay: Plasma ACTH concentrations by radioimmunoassay after CRF; assay type: in vivo, rat; conditions: CRF 0.3 ug i.v.; for Plasma ACTH Concentration: mean ± SE
Description: CRF and alpha-helical CRF-(9-41) are purchased from Bachem. Drugs are diluted in distilled water, and NaOH (0.1 N) added to the solution, 1 ul at a time, until the compounds [CRF and alpha-helical CRF-(9-41)]go into solution, at a pH of ~6.8. The solutions are aliquotted into 25- and 50-ug supplies, lyophilized, and stored in a desiccator at 4°-8° C. until needed. Radioimmunoassay kits for determination of plasma levels of ACTH are purchased from ImmunoNuclear.
The following example compares the endocrine response to a low dose of exogenous CRF (0.3 ug i.v.) and to stress-induced release of endogenous CRF by measuring plasma ACTH concentrations by radioimmunoassay in animals that are wrap restrained or treated with CRF.
Blood is drawn from an indwelling jugular cannula, surgically placed under Equithesin anesthesia 3 days earlier. Blood (0.2 ml) is drawn 10 minutes before treatment, as well as 5, 10, 20, 30, 45, and 60 minutes after CRF administration or wrap-restraint stress. Blood is also drawn at the same time points from control animals are briefly ether anesthetized but which are not stressed or drug treated.

Sprague-Dawley rats [1] = assay: Gastric emptying of 51Cr after exogenous CRF; assay type: in vivo, rat; conditions: CRF 1.0 to 10.0 ug i.v. or i.c.v.; FIG. 1A
Description: (§1) Female Sprague-Dawley rats (150-200 g) are used in all tests described herein. The animals are housed in groups of five in a temperature-controlled room on a 12 hour light-dark cycle (7:00 AM to 7:00 PM) and are allowed water and rat chow ad libitum. Animals are allowed at least one week to recover from shipping before experiments are performed. Gastrointestinal transit, a measure of the propulsive motor activity of the intestine, is evaluated by the geometric center method (Miller et al., 1981, J. Pharmacol. Methods 6:211-217), in which a nonabsorable radioactive marker, ^51 Cr (0.2 ml) as sodium chromate in distilled water, is instilled directly into the proximal duodenum and proximal colon via Silastic cannulas surgically implanted under Equithesin anesthesia 3-5 days earlier. Thirty-five minutes after administration of the chromium, the animals are killed, and the stomach and intestine are removed and counted for gamma radiation. Gastric emptying is evaluated by quantitating the percent radioactivity emptied from the stomach in a 15 minute period. Radiochromium in distilled water (0.2 ml) is administered by oral gavage, and the animals are killed and emptying assessed 15 minutes later. CRF or vehicle is administered intravenously or intracerebroventricularly immediately before ^51 Cr.

Sprague-Dawley rats [2] = assay: Small and large intestinal transit (geometric center method) and fecal output after exogenous CRF; assay type: in vivo, rat
Description: as §1

pituitary ACTH release = conditions: Rivier et al., 1984, cited from earlier work
Sprague-Dawley rats [3] = assay: Intestinal transit after alpha-helical CRF-(9-41) alone or against exogenous CRF; assay type: in vivo, rat
Description: as §1, with “Gastrointestinal” for “Female Sprague-Dawley rats (150-200 g) are used in all tests described herein. The animals are housed in groups of five in a temperature-controlled room on a 12 hour light-dark cycle (7:00 AM to 7:00 PM) and are allowed water and rat chow ad libitum. Animals are allowed at least one week to recover from shipping before experiments are performed. Gastrointestinal”
Since CRF is likely to play an essential role in initiating both endocrine and autonomic responses to stress, it is probable that CRF mediates the effects of stress on the gut and that blockade of CRF receptors would lessen stress-induced disordered transit. […] The antagonist, alpha-helical CRF-[…] (50 ug, i.v. or i.c.v.), has no effect on small or larger intestinal transit itself when administered into the brain or the bloodstream.

Sprague-Dawley rats [4] = assay: Wrap-restraint stress-induced intestinal dysfunction, antagonist pretreatment; assay type: in vivo, rat
Description: as §1, with “Gastrointestinal” for “Female Sprague-Dawley rats (150-200 g) are used in all tests described herein. The animals are housed in groups of five in a temperature-controlled room on a 12 hour light-dark cycle (7:00 AM to 7:00 PM) and are allowed water and rat chow ad libitum. Animals are allowed at least one week to recover from shipping before experiments are performed. Gastrointestinal”
Wrapping-restraint stress, a relatively mild, nonulcerogenic model of restraint is used in all stress studies. Stressed animals are lightly anesthetized with ether, and their trunk, shoulders, and upper forelimbs are wrapped in a confining harness of masking tape. Control animals are lightly ether anesthetized but are not wrapped. Radiochromium is then administered, and the animals are killed 35 minutes later to assess intestinal transit. All stress experiments are performed in the late afternoon (4:00 to 7:00 PM) due to a strong circadian influence on the degree of intestinal dysfunction associated with stress at different times of the day. […]

[5] = antagonist 50 ug i.v. or i.c.v., CRF 3 and 10 ug i.v. or i.c.v., same route

## Corticotropin-releasing factor (SQEPPISLDLTFHLLREVLEMTKADQLAQQAHSNRKLLDIA; ends and bridges not checked; UniProt P01142 148-188, looked up) [CRF, peptide comprising 41 amino acid residues, first characterized from ovine hypothalamic extracts; purchased from Bachem]
Plasma ACTH
  Peak levels of ACTH compared with wrap-restraint stress: very similar
  Time course of ACTH release compared with stress-induced ACTH release: more rapid time course
Plasma ACTH; 5 minutes after administration
  Plasma ACTH Concentration: 619 ± 70 pg/mL
Plasma ACTH; 10 minutes after administration
  Plasma ACTH Concentration: 494 ± 108 pg/mL
Plasma ACTH; 20 minutes after administration
  Plasma ACTH Concentration: 265 ± 93 pg/mL
Plasma ACTH; 30 minutes after administration
  Plasma ACTH Concentration: 174 ± 24 pg/mL
Plasma ACTH; 45 minutes after administration
  Plasma ACTH Concentration: 146 ± 33 pg/mL
Plasma ACTH; 60 minutes after administration
  Plasma ACTH Concentration: 141 ± 49 pg/mL
Plasma ACTH; time head +10 (10 minutes before treatment)
  Plasma ACTH Concentration: 64 ± 4 pg/mL
Sprague-Dawley rats [1]
  Gastric emptying: inhibited in a dose-dependent manner
Sprague-Dawley rats [2]; CRF 0.3 ug i.c.v., gastric emptying, small and large intestinal transit, fecal pellet output, FIG. 2
  Response of the gut to CRF compared with restraint stress: identical both in direction and degree
Sprague-Dawley rats [2]; CRF 0.3 to 10.0 ug
  Fecal pellet output: increased
Sprague-Dawley rats [2]; CRF 0.3 to 10.0 ug i.v. or i.c.v., FIG. 1B
  Small intestinal transit: inhibits
Sprague-Dawley rats [2]; CRF 0.3 to 10.0 ug i.v. or i.c.v., FIG. 1C
  Colonic transit: increases
Sprague-Dawley rats [2]; CRF at higher doses
  Diarrhea: diarrhea
Sprague-Dawley rats [2]; i.c.v., gastric and intestinal effects
  Lowest effective dose: 0.3 µg
Sprague-Dawley rats [2]; intravenously versus intracerebroventricularly administered CRF
  Effectiveness of i.v. versus i.c.v. administration: equally effective

## alpha-helical CRF-(9-41)
Pituitary ACTH release
  Agonist activity: little agonist activity
Pituitary ACTH release; both in vivo and in vitro
  Effects of CRF and stress on pituitary ACTH release: effectively antagonizes
Sprague-Dawley rats [3]; 50 ug, i.v. or i.c.v.
  Large intestinal transit, antagonist alone: has no effect
  Small intestinal transit, antagonist alone: has no effect
Sprague-Dawley rats [3]; [5]
  Effects of exogenous CRF on large intestinal transit: effectively antagonizes
  Effects of exogenous CRF on small intestinal transit: effectively antagonizes
Sprague-Dawley rats [4]; 50 ug i.c.v. or i.v. immediately before stress, FIG. 3A
  Stress-induced inhibition of small intestinal transit: did not affect
Sprague-Dawley rats [4]; 50 ug i.c.v. or i.v. immediately before stress, FIG. 3B
  Stress-induced increase in large intestinal transit: completely blocked
Sprague-Dawley rats [4]; 50 ug i.c.v. or i.v. immediately before stress, FIG. 3C
  Stress-induced increase in fecal pellet output: significantly diminished
Sprague-Dawley rats [4]; 100 μg i.c.v.
  Stress-induced increase in colonic transit, higher dose versus 50 ug: did not result in a further decrease
  Stress-induced increase in fecal excretion, higher dose versus 50 ug: did not result in a further decrease
  Stress-induced inhibition of small intestinal transit: did not affect
